In PMC10707468, “Pharmacokinetics of Novel Dopamine Transporter Inhibitor CE-123 and Modafinil with a Focus on Central Nervous System Distribution” (International Journal of Molecular Sciences, 2023):

How the values were obtained:
[1] = system: NET; design: method as in PMID 29410048; details: cited from earlier work
[2] = In vitro plasma stability assay; type: in vitro ADME; details: rat plasma
Experimental: In vitro plasma stability assay was used in the scope of the validation studies. Briefly, 40 μL of blank rat plasma or blank rat plasma containing 10% DMF as an inhibitor was first pre-warmed for 5 min at 37 °C using a Thermomixer® comfort (Eppendorf, Hamburg, Germany). […] The reaction was terminated after 0, 1, 2, and 4 h, via the addition of 50 μL of ice-cold ACN containing the IS solution. The samples were centrifuged for 10 min at 3000× g at 4 °C. The supernatant of all samples was diluted with 0.1% FA in water, 1:2 (v:v), and 10 µL of the sample was injected onto the LC–HRMS system.

In the case of `[O-][S@@+](Cc1cncs1)C(c1ccccc1)c1ccccc1` [S-CE-123], the “activity on NET” value [1] is listed as “negligible activity”.

For `NC(=O)C[S@@+]([O-])C(c1ccccc1)c1ccccc1` [R-modafinil, reference compound], the R-modafinil level remaining ([2]; 4 h incubation at 37 °C) was “about 50%” and the metabolized ([2]; after 4 h at 37 °C) was 50%.
